Test results from patent publication US20070212360A1, “Modulation of mitochondrial oxygen consumption for therapeutic purposes” (priority 2006, published 2007).

Tests used:
[1] = tested on: HIF1 responsive luciferase reporter in RKO cells; assay: 5×HRE-luciferase reporter assay in vitro; format: cell-based, human; settings: 0.5% O2 24 h, increasing concentrations, dose dependent
Experimental: FIG. 8. Increasing oxygen consumption by inhibition of PDK activity increases tumor hypoxia. (a) Luciferase activity of wildtype and HIF1α knockdown RKO cells stably transfected with a HIF1 responsive luciferase reporter gene. Cells were exposed to 0.5% O2 for 24 hours in triplicate. Luminescence is normalized to normoxic HIF wildtype cells. (b) Luciferase activity of wildtype RKO HIF1 reporter cells exposed to 0.5% O2 for 24 hours in the presence of increasing concentrations of echinomycin. Data are normalized to the increase in signal observed in the absence of drug. (c) Bioluminescent imaging in vivo. Images show a representative animal bearing an RKO reporter tumor on the left flank and an RKOShHIF1α reporter tumor on the right flank as a function of time after ip injection of 50 mg/kg DCA. […] (d) Quantification of in vivo bioluminescence. […] The data represent the mean of three independent experiments, each comprising 5 RKO and 5 RKOShHIF1α reporter tumors.
Luciferase reporter assay. […] Cells were exposed to 0.5% O2 for 24 hr, and luciferase activity was measured in triplicate using a luciferase reporter gene assay kit (Roche) and a Monolight 2010 luminometer (Analytical Luminescence Laboratory). […]

[2] = tested on: RKO and RKOShHIF1α tumors; assay: Oxygen consumption of freshly explanted RKO tumor xenografts; format: in vivo, mouse; settings: 0.12 mg/kg echinomycin ip 24 h prior; vs PBS controls
Experimental: FIG. 7. Inhibition of HIF1 and PDK1 increases oxygen consumption in vitro and in vivo. (a) Western blots of extracts from RKO and Su.86 cells exposed to normoxia (N) or hypoxia (H) (0.5% O2) for 24 h in the presence or absence of 2 ng/ml echinomycin probed for the indicated proteins. (b) Oxygen consumption rates of RKO and RKOShHIF1α cells (left) and Su.86 cells (right) after 24 h treatment with normoxia or hypoxia (0.5% O2) with or without 2 ng/ml echinomycin. Data are normalized to normoxic samples. (c) Relative oxygen consumption of RKO cells treated with hypoxia (0.5% O2) for 24 h in the presence of increasing concentrations of echinomycin. (d) Oxygen consumption rates of freshly explanted tumor tissue from RKO (n=16) and RKOShHIF1α (n=8) xenografts. (e) Oxygen consumption rates of RKO and RKOShHIF1 tumors from mice treated with 0.12 mg/kg echinomycin ip 24 h prior (n=8), or 50 mg/kg DCA ip 4 h prior (n=8). Data is normalized to PBS treated controls (n=8-16). (*) indicate a significant difference relative to control (p<0.05).
Cell lines and tumor xenografts. […]
Oxygen consumption measurements. […] Oxygen consumption was measured in a 0.5 ml volume using an Oxytherm electrode unit (Hansatech, Norfolk, UK). […] Oxygen consumption was measured as above in a 1 ml volume and normalized to tissue weight.

## CS[C@H]1SC[C@H]2C(=O)N(C)[C@@H](C(C)C)C(=O)OC[C@@H](NC(=O)c3cnc4ccccc4n3)C(=O)N[C@@H](C)C(=O)N(C)[C@@H]1C(=O)N(C)[C@@H](C(C)C)C(=O)OC[C@@H](NC(=O)c1cnc3ccccc3n1)C(=O)N[C@@H](C)C(=O)N2C [echinomycin]
[1]
  hypoxic induction of luciferase in RKO reporter cells in vitro: completely inhibited
[2]
  tumor oxygen consumption, RKO wildtype tumors: significantly increased
  tumor oxygen consumption, RKOShHIF1 tumors: no effect
